Literature values, collected in US20200241005A1, “COMPOSITIONS AND METHODS FOR THE DIAGNOSIS AND TREATMENT OF DISEASES OF THE LIVER” (Viscient Biosciences, Inc., priority 2019, published 2020).

Tests used:
SLC1A1 [1] = details: SLC1A1 vs SLC1A2 and SLC1A3
SLC1A1 [2] = details: astroglial cells; unknown mechanism

Structure (SMILES)	preference for SLC1A1 over its most related homologs SLC1A2 and SLC1A3 (SLC1A1 [1]) [fold]	effect on SLC1A1 expression (SLC1A1 [2])
N[C@H](C(=O)O)[C@H](Cc1ccccc1)C(=O)O [L-beta-benzyl-aspartate]	10	
Nc1nc2ccc(OC(F)(F)F)cc2s1 [Riluzole]		enhances SLC1A1 expression
